Data reported in PubChem BioAssay (NCI).
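Briefly, cells in 96-well plates were exposed to five compound concentrations for 48 h, and endpoints were estimated by linear interpolation. TGI marks complete inhibition of growth.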

What was measured:
Assay in all cases: DTP human tumour cell line panel, 48 h
[1] = system: 786-0 renal
[2] = system: A498 renal
[3] = system: A549 NSCLC
[4] = system: ACHN renal
[5] = system: CAKI-1 renal
[6] = system: CCRF-CEM leukemia
[7] = system: COLO 205 colon
[8] = system: DLD-1 colon
[9] = system: DMS 114 small cell lung
[10] = system: DMS 273 small cell lung
[11] = system: EKVX NSCLC
[12] = system: HCT-116 colon
[13] = system: HCT-15 colon
[14] = system: HL-60(TB) leukemia
[15] = system: HOP-18 NSCLC
[16] = system: HOP-62 NSCLC
[17] = system: HOP-92 NSCLC
[18] = system: HT29 colon
[19] = system: IGROV1 ovarian
[20] = system: K-562 leukemia
[21] = system: KM12 colon
[22] = system: KM20L2 colon
[23] = system: LOX IMVI melanoma
[24] = system: LXFL 529 NSCLC
[25] = system: M14 melanoma
[26] = system: M19-MEL melanoma
[27] = system: MALME-3M melanoma
[28] = system: NCI-H226 lung
[29] = system: NCI-H460 lung
[30] = system: NCI-H522 lung
[31] = system: OVCAR-3 ovarian
[32] = system: OVCAR-4 ovarian
[33] = system: OVCAR-5 ovarian
[34] = system: OVCAR-8 ovarian
[35] = system: RPMI-8226 leukemia
[36] = system: RXF 393 renal
[37] = system: RXF-631 renal
[38] = system: SF-268 CNS
[39] = system: SF-295 CNS
[40] = system: SF-539 CNS
[41] = system: SK-MEL-28 melanoma
[42] = system: SK-MEL-5 melanoma
[43] = system: SN12C renal
[44] = system: SNB-19 CNS
[45] = system: SNB-75 CNS
[46] = system: SNB-78 CNS
[47] = system: SW-620 colon
[48] = system: TK-10 renal
[49] = system: U251 CNS
[50] = system: UACC-257 melanoma
[51] = system: UACC-62 melanoma
[52] = system: UO-31 renal
[53] = system: XF 498 CNS

CCCOc1ccc(/C=C\c2cc(OC)c(OC)c(OC)c2)cc1
TGI [1]: > 100 µM | TGI [2]: > 100 µM | TGI [3]: > 100 µM | TGI [4]: > 100 µM | TGI [5]: > 100 µM | TGI [6]: > 100 µM | TGI [7]: > 100 µM | TGI [8]: > 100 µM | TGI [9]: > 100 µM | TGI [10]: > 100 µM | TGI [11]: > 100 µM | TGI [12]: > 100 µM | TGI [13]: > 100 µM | TGI [14]: > 100 µM | TGI [15]: > 100 µM | TGI [16]: > 100 µM | TGI [17]: > 100 µM | TGI [18]: > 100 µM | TGI [19]: > 100 µM | TGI [20]: > 100 µM | TGI [21]: 89.5 µM | TGI [22]: > 100 µM | TGI [23]: > 100 µM | TGI [24]: > 100 µM | TGI [25]: > 100 µM | TGI [26]: > 100 µM | TGI [27]: > 100 µM | TGI [28]: > 100 µM | TGI [29]: > 100 µM | TGI [30]: > 100 µM | TGI [31]: > 100 µM | TGI [32]: > 100 µM | TGI [33]: 60.9 µM | TGI [34]: > 100 µM | TGI [35]: > 100 µM | TGI [36]: > 100 µM | TGI [37]: > 100 µM | TGI [38]: > 100 µM | TGI [39]: > 100 µM | TGI [40]: > 100 µM | TGI [41]: > 100 µM | TGI [42]: 40.7 µM | TGI [43]: > 100 µM | TGI [44]: > 100 µM | TGI [45]: > 100 µM | TGI [46]: > 100 µM | TGI [47]: > 100 µM | TGI [48]: > 100 µM | TGI [49]: > 100 µM | TGI [50]: > 100 µM | TGI [51]: > 100 µM | TGI [52]: > 100 µM | TGI [53]: > 100 µM
